According to patent publication US9682995B2, “Amino-substituted isothiazoles” (BAYER PHARMA AKTIENGESELLSCHAFT, priority 2013, dated 2017):

Legend:
Test in all cases: Kinase Profiling (KINOMEscan)
Format in all cases: binding
[1] = molecular target: 456 kinases (of these 395 non-mutant kinases) (Homo sapiens, UniProt Q8NEV4); settings: MYO3A; 10 μM
[2] = molecular target: 456 kinases (of these 395 non-mutant kinases) (Homo sapiens, UniProt P80192); settings: MLK1; 10 μM
[3] = molecular target: 456 kinases (of these 395 non-mutant kinases) (Homo sapiens, UniProt Q9UBE8); settings: NLK; 10 μM
[4] = molecular target: 456 kinases (of these 395 non-mutant kinases) (Homo sapiens, UniProt P35590); settings: TIE1; 10 μM
[5] = molecular target: 456 kinases (of these 395 non-mutant kinases) (Homo sapiens, UniProt O94806); settings: PRKD3; 10 μM
[6] = molecular target: 456 kinases (of these 395 non-mutant kinases) (Homo sapiens, UniProt Q13237); settings: PRKG2; 10 μM
[7] = molecular target: 456 kinases (of these 395 non-mutant kinases) (Homo sapiens, UniProt P53779); settings: JNK3; 10 μM
[8] = molecular target: 456 kinases (of these 395 non-mutant kinases) (Homo sapiens, UniProt Q99755); settings: PIP5K1A; 10 μM
[9] = molecular target: 456 kinases (of these 395 non-mutant kinases) (Homo sapiens, UniProt Q96D53); settings: ADCK4; 10 μM
[10] = molecular target: 456 kinases (of these 395 non-mutant kinases) (Homo sapiens, UniProt Q8N568); settings: DCAMKL2; 10 μM
[11] = molecular target: 456 kinases (of these 395 non-mutant kinases) (Homo sapiens, UniProt Q13233); settings: MAP3K1; 10 μM
[12] = molecular target: 456 kinases (of these 395 non-mutant kinases) (Homo sapiens, UniProt Q13464); settings: ROCK1; 10 μM
[13] = molecular target: 456 kinases (of these 395 non-mutant kinases) (Homo sapiens, UniProt Q8WTQ7); settings: GRK7; 10 μM
[14] = molecular target: 456 kinases (of these 395 non-mutant kinases) (Homo sapiens, UniProt P00533, DEL746-750); settings: EGFR(E746-A750del); 10 μM
[15] = molecular target: 456 kinases (of these 395 non-mutant kinases) (Homo sapiens, UniProt Q13882); settings: BRK; 10 μM
[16] = molecular target: 456 kinases (of these 395 non-mutant kinases) (Homo sapiens, UniProt Q9UQ88); settings: CDC2L2; 10 μM
[17] = molecular target: 456 kinases (of these 395 non-mutant kinases) (Homo sapiens, UniProt P31152); settings: ERK4; 10 μM
[18] = molecular target: 456 kinases (of these 395 non-mutant kinases) (Homo sapiens, UniProt P42336, H1047Y); settings: PIK3CA(H1047Y); 10 μM
[19] = molecular target: 456 kinases (of these 395 non-mutant kinases) (Homo sapiens, UniProt Q9UEE5); settings: DRAK1; 10 μM
[20] = molecular target: 456 kinases (of these 395 non-mutant kinases) (Homo sapiens, UniProt Q9BXA7); settings: TSSK1B; 10 μM
[21] = molecular target: 456 kinases (of these 395 non-mutant kinases) (Homo sapiens, UniProt P78362); settings: SRPK2; 10 μM
[22] = molecular target: 456 kinases (of these 395 non-mutant kinases) (Homo sapiens, UniProt Q9Y6M4); settings: CSNK1G3; 10 μM
[23] = molecular target: 456 kinases (of these 395 non-mutant kinases) (Homo sapiens, UniProt Q13131); settings: AMPK-alpha1; 10 μM
[24] = molecular target: 456 kinases (of these 395 non-mutant kinases) (Homo sapiens, UniProt Q15746); settings: MYLK; 10 μM
[25] = molecular target: 456 kinases (of these 395 non-mutant kinases) (Homo sapiens, UniProt Q09013); settings: DMPK; 10 μM
[26] = molecular target: 456 kinases (of these 395 non-mutant kinases) (Homo sapiens, UniProt P09619); settings: PDGFRB; 10 μM
[27] = molecular target: 456 kinases (of these 395 non-mutant kinases) (Homo sapiens, UniProt Q6DT37); settings: DMPK2; 10 μM
[28] = molecular target: 456 kinases (of these 395 non-mutant kinases) (Homo sapiens, UniProt P04629); settings: TRKA; 10 μM
[29] = molecular target: 456 kinases (of these 395 non-mutant kinases) (Homo sapiens, UniProt P53355); settings: DAPK1; 10 μM
[30] = molecular target: 456 kinases (of these 395 non-mutant kinases) (Homo sapiens, UniProt P49336); settings: CDK8; 10 μM
[31] = molecular target: 456 kinases (of these 395 non-mutant kinases) (Homo sapiens, UniProt Q9H4A3); settings: WNK1; 10 μM
[32] = molecular target: 456 kinases (of these 395 non-mutant kinases) (Homo sapiens, UniProt P10721, D816H); settings: KIT(D816H); 10 μM
Sequence of 456 kinases (of these 395 non-mutant kinases) (Homo sapiens, UniProt P10721, D816H) (P10721 26-976 D816H limits assumed): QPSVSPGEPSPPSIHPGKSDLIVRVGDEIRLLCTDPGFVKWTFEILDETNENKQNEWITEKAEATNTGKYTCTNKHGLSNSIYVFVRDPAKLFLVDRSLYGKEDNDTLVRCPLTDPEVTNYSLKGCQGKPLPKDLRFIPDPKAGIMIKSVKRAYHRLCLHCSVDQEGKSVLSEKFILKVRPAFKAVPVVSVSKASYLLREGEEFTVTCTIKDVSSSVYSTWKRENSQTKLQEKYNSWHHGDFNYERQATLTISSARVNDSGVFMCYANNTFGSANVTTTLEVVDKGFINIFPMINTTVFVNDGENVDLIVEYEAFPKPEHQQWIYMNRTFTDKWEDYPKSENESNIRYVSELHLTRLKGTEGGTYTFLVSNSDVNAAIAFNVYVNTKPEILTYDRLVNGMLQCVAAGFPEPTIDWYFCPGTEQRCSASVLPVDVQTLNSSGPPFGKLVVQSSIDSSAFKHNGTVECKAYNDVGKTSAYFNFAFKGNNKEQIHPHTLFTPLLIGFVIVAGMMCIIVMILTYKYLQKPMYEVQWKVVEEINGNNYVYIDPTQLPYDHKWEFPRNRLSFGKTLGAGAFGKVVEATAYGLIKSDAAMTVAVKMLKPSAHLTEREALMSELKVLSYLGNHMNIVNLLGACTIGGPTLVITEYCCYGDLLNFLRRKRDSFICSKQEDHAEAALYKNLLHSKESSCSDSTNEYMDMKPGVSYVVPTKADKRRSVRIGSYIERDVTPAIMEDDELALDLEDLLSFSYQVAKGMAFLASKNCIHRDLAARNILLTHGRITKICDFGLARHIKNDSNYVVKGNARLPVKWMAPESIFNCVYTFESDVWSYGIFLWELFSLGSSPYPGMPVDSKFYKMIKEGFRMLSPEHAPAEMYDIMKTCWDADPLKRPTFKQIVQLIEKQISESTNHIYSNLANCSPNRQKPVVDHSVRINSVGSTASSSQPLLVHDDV

Sequence of 456 kinases (of these 395 non-mutant kinases) (Homo sapiens, UniProt P04629) (P04629 33-796 limits assumed, change not shown): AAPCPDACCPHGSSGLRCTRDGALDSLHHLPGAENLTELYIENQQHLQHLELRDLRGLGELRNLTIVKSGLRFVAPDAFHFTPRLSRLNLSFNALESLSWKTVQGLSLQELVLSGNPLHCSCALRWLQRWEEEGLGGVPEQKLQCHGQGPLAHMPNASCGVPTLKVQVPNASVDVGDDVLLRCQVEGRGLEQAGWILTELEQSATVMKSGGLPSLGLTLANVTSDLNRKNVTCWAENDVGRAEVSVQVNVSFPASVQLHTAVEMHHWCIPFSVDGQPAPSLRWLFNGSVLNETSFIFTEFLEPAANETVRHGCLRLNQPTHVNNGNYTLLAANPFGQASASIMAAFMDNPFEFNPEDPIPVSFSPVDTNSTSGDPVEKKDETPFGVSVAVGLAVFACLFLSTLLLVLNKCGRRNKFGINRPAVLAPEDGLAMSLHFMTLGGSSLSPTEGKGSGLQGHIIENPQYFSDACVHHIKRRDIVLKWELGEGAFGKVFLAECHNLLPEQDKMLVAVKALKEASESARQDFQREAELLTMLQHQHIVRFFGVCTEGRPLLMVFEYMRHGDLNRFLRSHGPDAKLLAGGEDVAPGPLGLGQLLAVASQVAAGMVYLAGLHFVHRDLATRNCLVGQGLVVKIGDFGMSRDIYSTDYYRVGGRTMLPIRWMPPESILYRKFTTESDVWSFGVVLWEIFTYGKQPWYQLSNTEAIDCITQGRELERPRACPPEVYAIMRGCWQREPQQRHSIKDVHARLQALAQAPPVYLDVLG
Sequence of 456 kinases (of these 395 non-mutant kinases) (Homo sapiens, UniProt P09619) (P09619 33-1106 limits assumed, change not shown): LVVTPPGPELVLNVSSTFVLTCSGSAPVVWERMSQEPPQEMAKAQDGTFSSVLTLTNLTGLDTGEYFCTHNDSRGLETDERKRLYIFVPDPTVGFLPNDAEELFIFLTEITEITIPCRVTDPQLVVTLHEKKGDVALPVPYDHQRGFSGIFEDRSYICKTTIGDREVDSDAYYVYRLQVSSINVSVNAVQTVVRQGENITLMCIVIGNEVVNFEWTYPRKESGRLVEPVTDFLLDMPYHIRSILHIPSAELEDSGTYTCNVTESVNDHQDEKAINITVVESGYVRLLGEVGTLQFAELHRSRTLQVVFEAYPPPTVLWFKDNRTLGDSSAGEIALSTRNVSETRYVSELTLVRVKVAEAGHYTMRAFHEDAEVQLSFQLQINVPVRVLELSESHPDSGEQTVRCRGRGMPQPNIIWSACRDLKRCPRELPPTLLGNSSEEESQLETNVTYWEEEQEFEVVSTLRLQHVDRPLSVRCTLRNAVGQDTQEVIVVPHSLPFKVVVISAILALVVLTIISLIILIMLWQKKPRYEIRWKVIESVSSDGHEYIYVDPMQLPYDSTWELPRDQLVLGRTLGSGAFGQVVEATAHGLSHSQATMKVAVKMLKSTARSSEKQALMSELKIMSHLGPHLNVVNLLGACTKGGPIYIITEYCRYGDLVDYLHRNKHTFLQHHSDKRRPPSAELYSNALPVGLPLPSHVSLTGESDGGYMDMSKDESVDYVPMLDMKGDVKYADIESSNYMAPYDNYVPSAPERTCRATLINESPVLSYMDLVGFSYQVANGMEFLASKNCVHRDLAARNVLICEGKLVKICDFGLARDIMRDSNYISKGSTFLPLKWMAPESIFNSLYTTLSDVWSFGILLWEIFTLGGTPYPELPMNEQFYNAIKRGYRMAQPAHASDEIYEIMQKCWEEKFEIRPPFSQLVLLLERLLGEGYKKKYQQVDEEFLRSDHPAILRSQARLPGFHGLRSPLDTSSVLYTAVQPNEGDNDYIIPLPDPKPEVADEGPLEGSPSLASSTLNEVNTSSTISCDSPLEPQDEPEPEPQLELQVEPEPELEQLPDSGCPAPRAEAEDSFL
Sequence of 456 kinases (of these 395 non-mutant kinases) (Homo sapiens, UniProt Q13237) (Q13237 2-762 limits assumed, change not shown): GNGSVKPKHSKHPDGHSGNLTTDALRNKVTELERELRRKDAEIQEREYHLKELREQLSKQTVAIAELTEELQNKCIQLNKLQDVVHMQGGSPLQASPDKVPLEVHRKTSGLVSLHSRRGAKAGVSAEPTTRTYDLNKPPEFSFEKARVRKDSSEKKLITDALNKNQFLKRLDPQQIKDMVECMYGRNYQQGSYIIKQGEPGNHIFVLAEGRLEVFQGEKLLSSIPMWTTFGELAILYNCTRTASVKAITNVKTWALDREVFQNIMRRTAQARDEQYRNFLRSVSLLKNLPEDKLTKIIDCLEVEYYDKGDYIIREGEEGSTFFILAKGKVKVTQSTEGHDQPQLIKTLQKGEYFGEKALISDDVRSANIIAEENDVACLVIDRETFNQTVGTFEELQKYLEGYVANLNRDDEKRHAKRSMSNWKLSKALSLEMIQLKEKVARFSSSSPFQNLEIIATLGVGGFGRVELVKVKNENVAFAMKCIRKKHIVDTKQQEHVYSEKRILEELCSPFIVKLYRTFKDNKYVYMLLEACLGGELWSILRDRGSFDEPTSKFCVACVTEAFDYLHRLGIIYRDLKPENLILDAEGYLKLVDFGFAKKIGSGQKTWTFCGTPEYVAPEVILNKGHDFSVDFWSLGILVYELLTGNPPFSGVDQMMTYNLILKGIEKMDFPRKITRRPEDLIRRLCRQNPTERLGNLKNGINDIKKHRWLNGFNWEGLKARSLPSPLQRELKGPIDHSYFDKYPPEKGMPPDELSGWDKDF
Sequence of 456 kinases (of these 395 non-mutant kinases) (Homo sapiens, UniProt Q13464) (Q13464 2-1354 limits assumed, change not shown): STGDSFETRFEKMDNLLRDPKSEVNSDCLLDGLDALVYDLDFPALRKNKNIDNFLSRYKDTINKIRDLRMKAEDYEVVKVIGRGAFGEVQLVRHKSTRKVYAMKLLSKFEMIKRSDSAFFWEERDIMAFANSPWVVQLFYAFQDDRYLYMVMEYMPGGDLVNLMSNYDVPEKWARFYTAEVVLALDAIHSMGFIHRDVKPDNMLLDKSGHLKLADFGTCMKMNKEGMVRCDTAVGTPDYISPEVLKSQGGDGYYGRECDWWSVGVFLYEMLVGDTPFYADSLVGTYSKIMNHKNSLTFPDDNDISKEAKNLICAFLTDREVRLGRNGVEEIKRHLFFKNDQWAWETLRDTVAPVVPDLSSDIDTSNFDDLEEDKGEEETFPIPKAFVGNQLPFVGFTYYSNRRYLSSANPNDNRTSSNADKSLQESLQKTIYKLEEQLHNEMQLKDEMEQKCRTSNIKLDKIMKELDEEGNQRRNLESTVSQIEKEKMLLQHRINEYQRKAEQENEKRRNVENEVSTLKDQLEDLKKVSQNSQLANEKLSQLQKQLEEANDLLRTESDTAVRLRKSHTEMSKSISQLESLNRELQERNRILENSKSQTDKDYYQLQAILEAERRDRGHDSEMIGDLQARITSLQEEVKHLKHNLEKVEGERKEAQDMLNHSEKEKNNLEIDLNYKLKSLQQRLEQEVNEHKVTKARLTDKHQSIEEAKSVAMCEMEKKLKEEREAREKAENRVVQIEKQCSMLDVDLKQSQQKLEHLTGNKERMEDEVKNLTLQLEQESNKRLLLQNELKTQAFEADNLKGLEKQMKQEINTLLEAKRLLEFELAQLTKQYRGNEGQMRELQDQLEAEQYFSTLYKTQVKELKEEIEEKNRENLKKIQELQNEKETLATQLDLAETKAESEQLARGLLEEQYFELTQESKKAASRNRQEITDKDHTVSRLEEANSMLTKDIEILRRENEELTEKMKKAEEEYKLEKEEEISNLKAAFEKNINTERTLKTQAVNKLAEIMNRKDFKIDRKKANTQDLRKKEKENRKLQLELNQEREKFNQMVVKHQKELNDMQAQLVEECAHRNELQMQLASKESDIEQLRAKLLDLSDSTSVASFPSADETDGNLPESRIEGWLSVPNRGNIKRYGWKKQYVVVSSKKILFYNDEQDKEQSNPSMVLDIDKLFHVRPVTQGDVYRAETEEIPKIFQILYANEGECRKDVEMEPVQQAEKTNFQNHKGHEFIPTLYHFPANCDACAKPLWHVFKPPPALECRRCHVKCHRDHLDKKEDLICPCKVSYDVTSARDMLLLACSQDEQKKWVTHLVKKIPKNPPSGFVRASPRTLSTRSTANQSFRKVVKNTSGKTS

For `CCc1ccccc1NC(=O)c1c(C)nsc1Nc1cnc2cc(F)ccc2n1` [Example 20, N-(2-Ethylphenyl)-5-[(6-fluoroquinoxalin-2-yl)amino]-3-methyl-1,2-thiazole-4-carboxamide], the “% Ctrl @ 10 μM” value [1] was 86 % Ctrl, the “% Ctrl @ 10 μM” value [2] was 100 % Ctrl and the “% Ctrl @ 10 μM” value [3] was 100 % Ctrl. The “% Ctrl @ 10 μM” value [4] was 100 % Ctrl, the “% Ctrl @ 10 μM” value [5] was 97 % Ctrl and the “% Ctrl @ 10 μM” value [6] was 100 % Ctrl. The “% Ctrl @ 10 μM” value [7] was 100 % Ctrl, the “% Ctrl @ 10 μM” value [8] was 100 % Ctrl and the “% Ctrl @ 10 μM” value [9] was 100 % Ctrl. For the same compound, the “% Ctrl @ 10 μM” value [10] was 98 % Ctrl, the “% Ctrl @ 10 μM” value [11] was 84 % Ctrl and the “% Ctrl @ 10 μM” value [12] was 81 % Ctrl. The “% Ctrl @ 10 μM” value [13] was 94 % Ctrl, the “% Ctrl @ 10 μM” value [14] was 100 % Ctrl and the “% Ctrl @ 10 μM” value [15] was 55 % Ctrl. The “% Ctrl @ 10 μM” value [16] was 85 % Ctrl, the “% Ctrl @ 10 μM” value [17] was 88 % Ctrl and the “% Ctrl @ 10 μM” value [18] was 100 % Ctrl. The “% Ctrl @ 10 μM” value [19] was 100 % Ctrl, the “% Ctrl @ 10 μM” value [20] was 100 % Ctrl and the “% Ctrl @ 10 μM” value [21] was 100 % Ctrl. For the same compound, the “% Ctrl @ 10 μM” value [22] was 70 % Ctrl, the “% Ctrl @ 10 μM” value [23] was 92 % Ctrl and the “% Ctrl @ 10 μM” value [24] was 87 % Ctrl. For the same compound, the “% Ctrl @ 10 μM” value [25] was 84 % Ctrl, the “% Ctrl @ 10 μM” value [26] was 89 % Ctrl and the “% Ctrl @ 10 μM” value [27] was 79 % Ctrl. For the same compound, the “% Ctrl @ 10 μM” value [28] was 100 % Ctrl, the “% Ctrl @ 10 μM” value [29] was 88 % Ctrl and the “% Ctrl @ 10 μM” value [30] was 100 % Ctrl. For the same compound, the “% Ctrl @ 10 μM” value [31] was 100 % Ctrl and the “% Ctrl @ 10 μM” value [32] was 97 % Ctrl.
